The test system of data set [1] is CALU1. Briefly: In vitro cytotoxicity of auristatin ADCs and free drugs (CellTiter-Glo, 96 h). The format is cell-based. As to conditions: for IC50: Homo sapiens, Calu-1, 96 h, read-out: IC50, CALU1; for IC50, CALU1: ADC, 96 h. On the procedure:
(§1) Cancer cells were counted and plated in 40 μL complete growth media in 384-well, white-walled tissue culture treated plates (Corning). Cell plates were incubated at 37° C. and with 5% CO2 overnight to allow the cells to equilibrate. Stock solutions containing ADCs or free drugs were serially diluted in RPMI-1640+20% fetal bovine serum (FBS). 10 μL of each concentration were then added to each cell plate in duplicate. Cells were then incubated at 37° C. and with 5% CO2 for 96 hours, upon which, the cell plates were removed from the incubator and allowed to cool to room temperature for 30 minutes prior to analysis. CellTiter-Glo® luminescent assay reagent (Promega Corporation, Madison, WI) was prepared according to Promega's protocol. 10 μL of CellTiter-Glo® were added to assay plates using a Formulatrix Tempest liquid handler (Formulatrix) and the plates were protected from light for 30 minutes at room temperature. The luminescence of the samples was measured using an EnVision Multimode plate reader (Perkin Elmer, Waltham, MA). Raw data were analyzed in Graphpad Prism (San Diego, CA) using a nonlinear, 4-parameter curve fit model [Y=Bottom+(Top-Bottom)/(1+10^((LogEC50−X)*HillSlope))]. Results are reported as IC50 values, which are defined as the concentration of ADC or free drug required to reduce cell viability to 50%.

Data set [2] deals with SKMEL5. Described as above. The format is cell-based. As to conditions: for IC50: Homo sapiens, SK-MEL-5, 96 h, read-out: IC50, SKMEL5; for IC50, SKMEL5: ADC, 96 h. On the procedure:
as §1

For data set [3], the system named is A2058. The description is as above. The format is cell-based. Particulars: for IC50: Homo sapiens, A2058, 96 h, read-out: IC50, A2058; for IC50, A2058: ADC, 96 h. As for the experimental part: as §1
Data set [4] relates to SKMEL28. Described as above. The format is cell-based. As to conditions: for IC50: Homo sapiens, SK-MEL-28, 96 h, read-out: IC50, SKMEL28. On the procedure: as §1
Data set [5] concerns DEL, Karpas299, and L540cy cell lines. Briefly: Average cytotoxicity of DEL, Karpas299, and L540cy cell lines. The format is cell-based. As to conditions: read-out: Avg IC50 Free drug. On the procedure: (§2) The cytotoxicity of free drugs and drug conjugates were measured by a cell proliferation assay employing the protocol described in Promega Corp. Technical Bulletin TB288; and Mendoza et al., 2002, Cancer Res. 62:5485-5488), the methods of which are specifically incorporated by reference herein. Briefly, an aliquot of 40 μl of cell culture containing about 400 cells in medium is deposited in each well of a 384-well, opaque-walled plate. A 10 μL aliquot of free drug or drug conjugate is added to the experimental wells and incubated for 96 h and are then equilibrated to room temperature for approximately 30 minutes whereupon a volume of CellTiter-Glo™ reagent equal to the volume of cell culture medium present in each well is added. The contents are mixed for 2 minutes on an orbital shaker to induce cell lysis and the plate is incubated at room temperature for 10 minutes to stabilize the luminescence signal for recordation.
Tolerability of an ADC comprising the compound of Example 8 of the present application was compared to tolerability of ADCs comprising the known compounds MMAE and MMAF. Without being bound by theory, the improvements in tolerability are believed to be related to reduced toxicities in the bone marrow and in the liver that are a result of the OH moieties on the compound of Example 8.

Data set [6] deals with DEL ALCL. The experiment in a line: In vitro cytotoxicity, cell proliferation assay (CellTiter-Glo, 96 h). Particulars: auristatin free drug. The format is cell-based. On the procedure:
as §2

In data set [7] the test system is L540cy HL. The description is as above. Type of data set: cell-based. Particulars: auristatin free drug. As for the experimental part:
as §2

In data set [8] the test system is Karpas299 NHL. The description is as above. As to conditions: Homo sapiens, KARPAS-299, auristatin free drug. Type of data set: cell-based. On the procedure: as §2
A short description of data set [9]: LogD, miniaturized 1-octanol/pH 7.4 buffer shake flask method, LC/MS/MS. Type of data set: physicochemical. On the procedure: The LogD (distribution coefficient) of the compounds was measured using a miniaturized 1-octanol/pH 7.4 buffer shake flask method followed by LC/MS/MS analysis. Values were determined by measuring the compound partitioned in the organic and buffered layers.

Data set [10] deals with Sprague Dawley rats. Briefly: In vivo rat safety study of non-binding (h00) ADCs, hematology and clinical chemistry. Particulars: ADC of the Drug-Linker. On the procedure:
In vivo rat safety studies were done in naive female Sprague Dawley rats (Envigo). Studies had 3 animals/group/timepoint and included a vehicle control group (1×PBS pH 7.4). Animals were administered a single dose of 15 or 80 mg/kg of an h00 ADC (DAR=4) via intravenous injection. Blood was drawn at days 5 and day 8. Blood was sampled under isoflurane anesthesia via the jugular vein for periodic hematology analysis on the Sysmex XT-2000iV. At necropsy, blood was collected from the caudal vena cava for hematology and clinical chemistry panels. Clinical chemistry was analyzed on a Beckman Coulter AU680.

In data set [11] the test system is cynomolgus monkeys. The experiment in a line: In vivo safety study of hCR011 ADCs, hematology and clinical chemistry (Example 97). The arrangement: species or system cynomolgus monkey. As to conditions: 3 mg/kg, four weekly i.v. doses, DAR=4. As for the experimental part:
In vivo safety studies were done in naive cynomolgus monkeys. Studies had 1 or 2 animals/group/timepoint of hCR011-MC-VC-MMAE (DAR=4) or hCR011-Example 60 (DAR=4). Animals were administered four weekly doses of 3, 5, or 10 mg/kg of ADC via intravenous (slow bolus) injection. Baseline measurements for hematology and clinical chemistry parameters were taken from blood drawn at one or two time points prior to dosing, and post-dose timepoints were collected at day 8, and also on days 15 and 29 (hematology only).

In data set [12] the test system is SKBR3. Briefly: In vitro cytotoxicity of auristatin ADCs and free drugs (CellTiter-Glo, 96 h). The format is cell-based. Particulars: ADC, Table 8. On the procedure: as §1
The test system of data set [13] is HCC2218. Described as above. As to conditions: ADC, Table 8. Type of data set: cell-based. As for the experimental part: as §1
Data set [14] has as its system WM2664. The description is as above. Particulars: ADC, Table 8. Type of data set: cell-based. On the procedure: as §1
Data set [15] concerns cynomolgus monkeys. Briefly: In vivo toxicology study of hCR011 ADCs at 5 mg/kg (Example 98). Particulars: DAR=4. The arrangement: species or system cynomolgus monkey. As for the experimental part:
In vivo toxicology studies were done in naive cynomolgus monkeys. Studies had 2 animals/group/timepoint of hCR011-MC-VC-MMAE (DAR=4) or hCR011-Example 60 (DAR=4). Animals were administered four weekly doses of 5 mg/kg of ADC via intravenous (slow bolus) injection.

*1 amine or outer side, *2 acyl side, *3 side chain or, on linkers, in order; H or OH if unused. Where a SMILES comes first, the peptide text is derived from it. [ ]: non-standard residue; d: D form. The star is where a group is joined. Dolaproine = CO[C@@H]([C@@H]1CCCN1)[C@@H](C)C(=O)O; Propanoyl(3-maleimido) = O=C1C=CC(=O)N1CCC(=O)*; Dil = CC[C@H](C)[C@H](NC)[C@@H](CC(=O)O)OC; PABC = O=C(OCc1ccc(N[*:1])cc1)[*:2]; Doe = c1ccc(C[C@H](N*)c2nccs2)cc1; X1 = C[C@@H](N*)[C@@H](O)c1ccccc1; Phe(ol) = N[C@H](CO)Cc1ccccc1; NHPhenethyl = c1ccc(CCN*)cc1; NMeV = CN[C@H](C(=O)O)C(C)C; X2 = CN(C)[C@@H](CO)C(=O)*; NMeS = CN[C@@H](CO)C(=O)O

For the compound `CC[C@H](C)[C@@H]([C@@H](CC(=O)N1CCC[C@H]1[C@H](OC)[C@@H](C)C(=O)N[C@H](CO)Cc1ccccc1)OC)N(C)C(=O)[C@@H](NC(=O)[C@H](CO)N(C)C)C(C)C` [Ex. 8 (compound 1.1)] (X2-V[Dil][Dolaproine][Phe(ol)]), the concentration for half-maximal inhibition (IC50) in data set [1] was found to be 5 nM; in data set [2], 2 nM; in data set [3] it was 2 nM; in data set [4], 4 nM.
Take `CC[C@H](C)[C@@H]([C@@H](CC(=O)N1CCC[C@H]1[C@H](OC)[C@@H](C)C(=O)N[C@H](CO)Cc1ccccc1)OC)N(C)C(=O)[C@@H](NC(=O)[C@H](CO)N(C)C)C(C)C` [Example 8] (X2-V[Dil][Dolaproine][Phe(ol)]): the IC50 in [5] amounted to 2.9 nM; in data set [6], 0.7 nM; in data set [7], 6.6 nM; in data set [8] it was 1.4 nM. This compound displayed a logD in data set [9] of 1.6.
For the compound `CC[C@H](C)[C@@H]([C@@H](CC(=O)N1CCC[C@H]1[C@H](OC)[C@@H](C)C(=O)NCCc1ccccc1)OC)N(C)C(=O)[C@@H](NC(=O)[C@H](CO)N(C)C(=O)OCc1ccc(NC(=O)[C@H](CCC(=O)O)NC(=O)[C@H](C)NC(=O)[C@@H](CC(C)C)NC(=O)CCN2C(=O)C=CC2=O)cc1)C(C)C` [Example 78] ({Propanoyl(3-maleimido)}-[dL]AE[PABC][NMeS]V[Dil][Dolaproine]-NHPhenethyl), the “Tolerated at 80 mg/kg in rats” value in [10] is reported as “Yes”.
Still for that read-out and setting: under `CC[C@H](C)[C@@H]([C@@H](CC(=O)N1CCC[C@H]1[C@H](OC)[C@@H](C)C(=O)N[C@@H](Cc1ccccc1)c1nccs1)OC)N(C)C(=O)[C@@H](NC(=O)[C@H](CO)N(C)C(=O)OCc1ccc(NC(=O)[C@H](CCC(=O)O)NC(=O)[C@H](C)NC(=O)[C@@H](CC(C)C)NC(=O)CCN2C(=O)C=CC2=O)cc1)C(C)C` [Example 79] ({Propanoyl(3-maleimido)}-[dL]AE[PABC][NMeS]V[Dil][Dolaproine]-Doe) stands “No”.
On to `CC[C@H](C)[C@@H]([C@@H](CC(=O)N1CCC[C@H]1[C@H](OC)[C@@H](C)C(=O)N[C@@H](Cc1ccccc1)c1nccs1)OC)N(C)C(=O)[C@@H](NC(=O)[C@H](CO)N(C)C(=O)OCc1ccc(NC(=O)[C@H](CCC(=O)O)NC(=O)[C@H](C)NC(=O)[C@@H](CC(C)C)NC(=O)CCN2C(=O)C=CC2=O)cc1)[C@@H](C)CC` [Example 80] ({Propanoyl(3-maleimido)}-[dL]AE[PABC][NMeS]I[Dil][Dolaproine]-Doe), for which the “Tolerated at 80 mg/kg in rats” value in [10] is “Yes”.
Regarding `CC[C@H](C)[C@@H]([C@@H](CC(=O)N1CCC[C@H]1[C@H](OC)[C@@H](C)C(=O)N[C@H](C)[C@@H](O)c1ccccc1)OC)N(C)C(=O)[C@@H](NC(=O)[C@@H](NC)C(C)C)C(C)C` [MMAE, monomethyl auristatin E, reference compound] (H-[NMeV]V[Dil][Dolaproine]-X1), the IC50 in data set [1] worked out at 0.6 nM; in [2] it was 0.2 nM; in [3] it was 0.3 nM; in [4] it was 0.4 nM; in data set [5] it was 0.2 nM; in data set [6], 0.05 nM. Moreover, the IC50 in [7] and in [8] was 0.1 nM each time. In [9], this compound displayed a logD of 1.9.
Consider `CC[C@H](C)[C@@H]([C@@H](CC(=O)N1CCC[C@H]1[C@H](OC)[C@@H](C)C(=O)N[C@@H](Cc1ccccc1)C(=O)O)OC)N(C)C(=O)[C@@H](NC(=O)[C@@H](NC)C(C)C)C(C)C` [MMAF, monomethyl auristatin F, reference compound] (H-[NMeV]V[Dil][Dolaproine]F-OH), for which the IC50 in [5] was 44 nM; in [6], 44 nM; in data set [7], 47 nM; in [8], 41 nM. Moreover, the logD in [9] was determined as 0.03.
For “hCR011-MC-VC-MMAE: "conjugate hCR011-MC-VC-MMAE" "(DAR=4)" [reference compound]”, the “neutrophil counts post-administration, FIG. 17” value in data set [11] was “a decrease relative to baseline on days 8, 15, and 29”. Further, the figures for the “IC50, CALU1” value in [1] (Table 8) and in data set [1] (Table 9) were greater than 30K and 14251 ng/mL, respectively. In data set [12], the “IC50, SKBR3” value is 2.69 µg/mL. Also, the “IC50, SKMEL5” value in data set [2] (Table 8) was found to be 0.916 µg/mL; in data set [2] (Table 9), 0.668 µg/mL. In addition, the “IC50, A2058” value amounted to 24.3 µg/mL in data set [3] (Table 8) and 11.118 µg/mL in data set [3] (Table 9). For the same compound, in [13], the “IC50, HCC2218” value is greater than 30K. In data set [14], the “IC50, WM2664” value was 4.468 µg/mL. Moreover, the “IC50, SKMEL28” value in data set [4] (ADC, Table 9, 96 h) was 14.02 µg/mL. Moreover, the “neutrophil counts post-dose on Day 8, FIG. 21” value in data set [15] is reported as “a decrease relative to baseline”.
